Laboratory results taken from PubChem BioAssay (NCI).
Values joined by “and” are separate entries in the source; they are usually repeats but may differ in a detail not shown here. Equal values may be shown once.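 Five compound concentrations were applied to cells in 96-well plates for 48 hours; endpoints were derived by simple linear interpolation of the resulting dose-response curve. GI50 is the concentration that inhibits growth by half. The concentration for full growth arrest is given as TGI.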

Tests used:
Assay in all cases: NCI-60 cell line screen, 48 h
COLO 205 colon = system: COLO 205 colon
SF-268 CNS = system: SF-268 CNS
SNB-75 CNS = system: SNB-75 CNS
OVCAR-4 ovarian = system: OVCAR-4 ovarian
LOX IMVI melanoma = system: LOX IMVI melanoma
SR leukemia = system: SR leukemia
HCC-2998 colon = system: HCC-2998 colon
HCT-15 colon = system: HCT-15 colon
OVCAR-8 ovarian = system: OVCAR-8 ovarian
NCI-H522 lung = system: NCI-H522 lung

SMILES	GI50 (COLO 205 colon)	TGI (COLO 205 colon)	GI50 (SF-268 CNS)	TGI (SF-268 CNS)	GI50 (SNB-75 CNS)	TGI (SNB-75 CNS)	GI50 (OVCAR-4 ovarian)	TGI (OVCAR-4 ovarian)	GI50 (LOX IMVI melanoma)	TGI (LOX IMVI melanoma)	GI50 (SR leukemia)	TGI (SR leukemia)	GI50 (HCC-2998 colon)	TGI (HCC-2998 colon)	GI50 (HCT-15 colon)	TGI (HCT-15 colon)	GI50 (OVCAR-8 ovarian)	TGI (OVCAR-8 ovarian)	GI50 (NCI-H522 lung)	TGI (NCI-H522 lung)
CC[C@H](CO)Nc1nc(NCc2ccccc2)n2ncc(C(C)C)c2n1	1.12 µM	3.15 µM	1.82 µM	7.2 µM	1.31 µM	3.33 µM	2.58 µM	37 µM	1.07 µM	10.3 µM	0.249 µM	1.59 µM	1.2 µM	3.27 µM	0.872 µM	10.5 µM	2.15 µM	54.8 µM	1.46 µM	8.98 µM
Cc1cc(Cl)ccc1NC(=O)CC/C(CC(=O)C(C)C)=N\NC(=O)C[n+]1ccccc1		> 100 µM		> 100 µM		> 100 µM		> 100 µM		> 100 µM		> 100 µM		> 100 µM		> 100 µM		> 100 µM		> 100 µM
COC(=O)CCC(NC(=S)N/N=C/c1ccco1)C(=O)OC (centres undefined)		> 100 µM		> 100 µM		> 100 µM		> 100 µM		> 100 µM		> 100 µM		> 100 µM		> 100 µM		> 100 µM		> 100 µM
COc1c2c(nc3ccccc13)-c1cc3c(c(=O)n1C2)COC(=O)C3(O)CC(=O)N1CCOCC1 (centres undefined)		> 86.5 µM		26.7 µM		11.6 µM		> 100 µM		16.5 µM		17.5 µM		75.8 µM		> 100 µM		33.8 µM		31.4 µM
CCCCN(CCCC)c1ccc(C(=N)c2ccc(N(CCCC)CCCC)cc2)cc1	0.322 µM	1.05 µM	0.679 µM	1.93 µM	0.746 µM	2.14 µM	0.373 µM	1.4 µM	0.313 µM	1.19 µM	0.287 µM	1.04 µM	0.442 µM	1.65 µM	0.418 µM	1.62 µM	0.396 µM	1.37 µM	0.232 µM	0.727 µM
CCN(CC)Cc1ccc(Nc2nccc(-c3cnn4ncccc34)n2)cc1	0.00829 µM	0.0337 µM	0.0145 µM	0.607 µM	0.0114 µM	0.0529 µM	0.0766 µM	9.99 µM	0.00767 µM	> 25 µM	0.00795 µM		0.0333 µM	0.129 µM	0.0265 µM	> 25 µM	0.0133 µM	> 25 µM	0.049 µM	0.116 µM
O=C1c2c(O)cccc2C(C2OC(CO)C(O)C(O)C2O)c2cc(CO)cc(O)c21 (centres undefined)		> 100 µM		> 100 µM		> 100 µM		> 100 µM		> 100 µM	> 100 µM	> 100 µM		> 100 µM		> 100 µM		> 100 µM		> 100 µM
CCSCCCN(CCCSCC)CCCSCC		> 100 µM		> 100 µM		> 100 µM		> 100 µM		> 100 µM		> 100 µM		> 100 µM		> 100 µM		> 100 µM		> 100 µM
C=C1C(=O)OC2C1C(OC(=O)/C(C)=C/C)CC(O)(CCl)C1C(O)C3OC3(C)C21O (centres undefined)		41.9 µM		> 50 µM		> 50 µM		> 50 µM		> 50 µM		> 50 µM		> 50 µM		> 50 µM		42.5 µM		10.2 µM
NC(=O)c1c(NC(=O)c2ccc3c(c2)OCO3)sc2c1CCC(=O)C2	2.49 µM	7.42 µM	1.88 µM	> 100 µM	2.13 µM	6.5 µM	0.494 µM	1.79 µM	1.15 µM	> 100 µM	0.372 µM	> 100 µM	3.45 µM	> 100 µM			1.75 µM	> 100 µM	0.355 µM	2.29 µM
C/C=C(/COC(C)=O)C(=O)OC1C=C(C=O)C(C)(C)C=C1C (centres undefined)		> 100 µM		> 100 µM		> 100 µM		> 100 µM		> 100 µM		> 100 µM		> 100 µM		> 100 µM		> 100 µM		> 100 µM
CCOc1cc2ncc(C#N)c(Nc3ccc(OCc4ccccn4)c(Cl)c3)c2cc1NC(=O)/C=C/CN(C)C	1.04 µM and 0.598 µM	24.7 µM and > 5.21 µM	0.563 µM	> 10 µM	0.915 µM and 0.362 µM	5.87 µM and > 5.3 µM	0.49 µM and 0.48 µM	2.44 µM and > 10 µM	0.724 µM and 0.82 µM	2.29 µM and > 5.73 µM	0.413 µM	> 3.38 µM	1.29 µM and > 2.87 µM	20.1 µM and > 7.88 µM	0.475 µM and 0.404 µM	7.97 µM and 5.67 µM	0.28 µM and 0.339 µM	1.65 µM and > 4.46 µM	< 0.01 µM and 0.00351 µM	0.0818 µM and 0.706 µM
Cc1c2c(nn1C)CSCc1cc(n(C)n1)CSc1cc(c3ccccc3c1)OCCCc1c(C(=O)O)n(C)c3c-2c(Cl)ccc13	3.36 µM	12.2 µM	4.42 µM	16.3 µM	4.35 µM	18 µM	6.76 µM	22.9 µM	2.87 µM	12.1 µM	0.47 µM	7.25 µM	3.15 µM	13.4 µM	5.83 µM	18.9 µM	4.62 µM	18.9 µM	1.9 µM	8.01 µM
NC(=S)N/N=C/c1ncccc1N	2.54 µM	12.1 µM and > 10 µM	0.731 µM	51.9 µM and > 8.29 µM	0.674 µM	25.3 µM and > 8.46 µM	3.57 µM	> 50 µM	0.439 µM	8.25 µM and > 10 µM		18.9 µM and > 10 µM	1.14 µM	> 100 µM	3.14 µM	> 100 µM		> 100 µM	1.71 µM	6.62 µM and > 10 µM
Cc1[nH]c2ccccc2c1C1Cc2ccccc2N1C(=O)/C=C/C(=O)O (centres undefined)		> 100 µM		> 100 µM		> 100 µM		> 100 µM		> 100 µM		> 100 µM		> 100 µM		33 µM		> 100 µM		> 100 µM
O=C(c1ccccc1)c1cccc(C(=O)c2ccccc2)c1		> 100 µM		> 100 µM		> 100 µM		> 100 µM		> 100 µM		> 100 µM		> 100 µM				> 100 µM		> 100 µM
O=C1CC(S(=O)(=O)O)C=C1Nc1cccc(Cl)c1 (centres undefined)		> 100 µM		> 100 µM		> 100 µM		> 100 µM		> 100 µM		> 100 µM		> 100 µM				> 100 µM		> 100 µM
